# Measured values reported in publication PMC10011156, “Characterization of a highly conserved MUC5B-degrading protease, MdpL, from Limosilactobacillus fermentum” (Frontiers in Microbiology, 2023).
# Target: T1, MdpL (Mucin degrading protease from Limosilactobacillus); putative O-sialoglycoprotein endopeptidase (OSGP) (Limosilactobacillus fermentum, UniProt B2GAG0)
# T1 construct: gene tsaD; C-terminal Gly-Ser-Gly linker and 6xHis tag kept
# T1 sequence (B2GAG0 1-344): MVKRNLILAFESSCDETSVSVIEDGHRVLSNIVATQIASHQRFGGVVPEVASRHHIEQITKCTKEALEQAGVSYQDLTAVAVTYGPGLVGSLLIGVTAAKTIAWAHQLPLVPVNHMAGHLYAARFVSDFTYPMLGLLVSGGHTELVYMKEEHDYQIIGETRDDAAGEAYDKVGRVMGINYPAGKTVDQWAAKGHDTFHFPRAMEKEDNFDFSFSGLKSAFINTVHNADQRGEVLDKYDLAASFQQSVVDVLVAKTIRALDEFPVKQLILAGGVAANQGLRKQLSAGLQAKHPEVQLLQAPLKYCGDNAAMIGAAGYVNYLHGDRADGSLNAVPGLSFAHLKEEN
# Experiment: Etanercept hydrolysis, SDS-PAGE with densitometry
# Format: biochemical
# Conditions: inhibitor concentration per manufacturer, not given
row,SMILES,inhibition level (%)
1,CC(C)C[C@H](NC(=O)[C@@H]1O[C@H]1C(=O)O)C(=O)NCCCCNC(=N)N [E64],"AEBSF, ALLN, Antipain, Chymostatin, E64, Leupeptin, and Phosphoramidon completely inhibited the MdpL activity"
2,CC(C)C[C@H](NC(=O)[C@@H](O)[C@H](N)Cc1ccccc1)C(=O)O [Bestatin],"Bestatin, and PMSF had a moderate inhibitory effect"
3,NCCc1ccc(S(=O)(=O)F)cc1 [AEBSF],"AEBSF, ALLN, Antipain, Chymostatin, E64, Leupeptin, and Phosphoramidon completely inhibited the MdpL activity"
4,CC(C)C[C@H](NP(=O)(O)O[C@@H]1O[C@@H](C)[C@H](O)[C@@H](O)[C@H]1O)C(=O)N[C@@H](Cc1c[nH]c2ccccc12)C(=O)O [Phosphoramidon],"AEBSF, ALLN, Antipain, Chymostatin, E64, Leupeptin, and Phosphoramidon completely inhibited the MdpL activity"
